Test results as given in publication PMC7507342, “A Cell‐Free Platform Based on Nisin Biosynthesis for Discovering Novel Lanthipeptides and Guiding their Overproduction In Vivo” (Advanced Science, 2020).
Non-standard residues stand in square brackets, D forms with d. No end group written: not given here. Dhb = C/C=C(\N)C(=O)O; Dha = C=C(N)C(=O)O

Columns and labels:
[1] = system: MRSA (clinical pathogenic strain); test: MIC determination in 96-well plates; format: cell-based, methicillin‐resistant S. aureus; details: 96-well plate, MHB broth, 5.0 × 10^5 CFU mL^−1, 37 °C, 24 h, OD600, quantified as eight-fold dehydrated molecules, n=3
Source text: (§1) The CFPS system is for quick screening of potential antimicrobial lanthipeptides, and we then purified enough compounds of the screened nisin analogs for structure identification and activity assays. We prepared mLanAs for the novel lanthipeptides (RL6, RL8, RL13, and RL14) in E. coli (Table S2, Supporting Information) and removed their leader peptides in vitro, as it is more economical to mass produce targeted lanthipeptides using this previously reported method^[ ^4 ^] rather than to use CFPS to mass produce lanthipeptides. Nisin and most lanthipeptides are not pure products in the commercially available and standard products, they are a mixture of different dehydrating ingredients resulting from incomplete NisB catalysis. Therefore, we verified that the decisive antibacterial component in the currently commercially available nisin is the eightfold dehydrated component (Figure S5, Supporting Information). […] We treated the novel lanthipeptides with the thiol‐alkylating reagent N‐ethylmaleimide (NEM) to sequester any noncyclic Cys residues, and evaluated ring topology using LC‐MS (Figure S7, Supporting Information). […] We quantified these four novel lanthipeptides using the purified eight‐fold dehydrated component of nisin as a standard.
(§2) MICs were determined according to a previously described method^[ ^38 ^] with minor modifications. Briefly, the test medium for clinical strain species was MHB broth (BD Difco), LB broth was used for E. coli, and bioassay medium containing 1.2% tryptone, 0.75% yeast extract, 0.75% NaCl, 0.3% NaH2PO4, and 0.75% glucose was used for M. luteus. Bacteria were grown overnight to the early stationary phase and adjusted in corresponding culture medium to 5.0 × 10^5 CFU mL^−1 in the wells of 96‐well microtiter plates, mixed with varying concentrations of test compounds, and incubated at 37 °C for 24 h. Cell growth was evaluated by measuring the optical density at 600 nm, and the MIC was defined as the lowest compound concentration at which no bacterial growth was observed.
(§3) Table S3. MIC Values of Several Lanthipeptides Against Microorganisms
(§4) MIC* mg/L(μM) M. luteus E. faecalis S. aureus MRSA
(§5) Note: * The test lanthipeptide is a mixture of different dehydration molecules . Quantification of
(§6) lanthipeptides was performed using the eight-fold dehydrated molecules (n=3). The data

[2] = system: S. aureus (clinical pathogenic strain); test: MIC determination in 96-well plates; format: cell-based, Staphylococcus aureus; details: 96-well plate, MHB broth, 5.0 × 10^5 CFU mL^−1, 37 °C, 24 h, OD600, quantified as eight-fold dehydrated molecules, n=3
Source text: as §1, §2, §3, §4, §5, §6

M. luteus = test: MIC determination in 96-well plates; format: cell-based, Micrococcus luteus; details: for MIC M. luteus: 96-well plate, bioassay medium, 5.0 × 10^5 CFU mL^−1, 37 °C, 24 h, OD600, n=3
Source text: as §1, §2, §3, §4, §5, §6

[3] = system: E. faecalis (clinical pathogenic strain); test: MIC determination in 96-well plates; format: cell-based, Enterococcus faecalis; details: for MIC E. faecalis: 96-well plate, MHB broth, 5.0 × 10^5 CFU mL^−1, 37 °C, 24 h, OD600, quantified as eight-fold dehydrated molecules, n=3
Source text: as §1, §2, §3, §4, §5, §6

E. coli DH5α = E. coli DH5α growth (OD600) in LB medium with EDTA and purified lanthipeptide; format: cell-based, Escherichia coli
Protocol: Figure 4 Screening of nisin mutants using the CFPS system. A) Schematic illustration of the screening for nisin mutants. B) Nisin and nisin mutants. Dha, dehydrolalanine; Dhb, dehydrobutyrine; Abu, 2‐aminobutyric acid. C) Heat‐map of antimicrobial activity of nisin mutants against E. coli in the second round of screening. After adding the CFPS mixture to E. coli and incubating for 8 h, the ΔOD600 value represents the OD600 of E. coli with added nisin mutant CFPS mixture minus the OD600 (control group) of E. coli with nisin CFPS mixture in the same plate. Yellow areas represent an inhibitory effect on E. coli. […] The test lanthipeptide is a mixture of different dehydration molecules, quantification of lanthipeptides was performed using the eightfold dehydrated molecules. […]
Next, to verify the reliability of the CFPS platform for screening, abundant lanthipeptides are required to characterize the structure and anti‐E. coli ability of the mutants. […] The structures were identified by LC‐MS‐MS (Figure 4B; Figure S6, Supporting Information) and the […] rings were detected by NEM reaction (Figure S7, Supporting Information). […]
Figure S8. OD600 of E. coli DH5α in LB Medium with Different Concentrations of EDTA and Nisin after 18 h of Co-culture (n=3) ΔOD600 indicates the difference between readings with different concentrations of blank media. […]

[4] = system: Micrococcus luteus NCIB 8166; test: Agar diffusion bioassay of CFPS mixture; format: cell-based; details: agar diffusion method; CFPS reaction 6 h
Protocol: We evaluated the performance of our CFPS platform for nisin biosynthesis. Each plasmid (0.5 nmol L^−1) (pJL1‐nisZ, pET28a‐nisB, pET28a‐nisC, and pET28a‐nisP) was added into the CFPS platform and incubated for 6 h (Figure 1A). The 400 µL of reaction mixture was concentrated to 20 µL and the concentrated mixture was then detected by tandem mass spectrometry (LC‐MS‐MS). The results confirmed that fully modified nisin Z was produced in the CFPS mixture (Figure 1B).
These hybrid precursor peptides were then cloned into the pJL1 plasmid. Bagelicin, a nisin analog with antibacterial activity that was identified using a previously described in vivo screening system,^[ ^5 ^] was chosen as the positive control for validation. The pJL1‐nisZ plasmid in our CFPS platform was replaced with the hybrid precursor peptide plasmids (pRL1‐pRL18 and pJL1‐bagelicin). After incubation for 6 h, the bagelicin CFPS mixture (positive control) was analyzed by LC‐MS‐MS and bioassays.
The activity levels of nisin and new lanthipeptides were determined by a previously described agar diffusion method, with minor modifications.^[ ^37 ^] Briefly, a stock nisin solution 1000 IU mL^−1) was prepared by adding 50 mg of commercial nisin (10^6 IU g^−1; Sigma‐Aldrich, St. Louis, MO, USA) into 50 mL of sterile 0.02 mol L^−1 HCl. […]

[5] = mixture of dehydration molecules quantified as eight-fold dehydrated molecules
[6] = value in parentheses, quantified as eight-fold dehydrated molecules
[7] = summary of Table S3 in the text

Row | Substance | MIC MRSA [1] [mg/L] | MIC MRSA ([1]; value in parentheses) [µM] | MIC S. aureus [2] [mg/L] | MIC S. aureus ([2]; value in parentheses) [µM] | MIC M. luteus (M. luteus; [5]) [mg/L] | MIC M. luteus (M. luteus; [6]) [µM] | MIC E. faecalis [3] [mg/L] | MIC E. faecalis ([3]; value in parentheses) [µM] | antibacterial activity against M. luteus (in words) (M. luteus; [7]) | antibacterial activity against E. faecalis (in words) [3, 7] | inhibition of E. coli DH5α growth with EDTA (OD600) (E. coli DH5α; 320 μM EDTA, nisin Z 24, 48, 96 μM, 18 h co-culture, n=3 (Figure S8)) | inhibition of E. coli DH5α growth at 20-fold the reported nisin concentration (E. coli DH5α; 18 h co-culture (Figure S8)) | antibacterial activity of CFPS mixture on M. luteus plate (in words) [4]
1 | IT SKSLC TPGCKTGALMT CPIKTAT CGCHFGN (bicyclic or more) [RL13, novel lanthipeptide, nisin analog, core peptide from Streptococcus equinus] | > 250 | > 80.8 | > 250 | > 80.8 | 0.24 | 0.077 | 250 | 80.8 | – | – | – | – | –
2 | IT SKSLC TPGCVTGVLMGCALKTIT CNC SVGIGKK (bicyclic or more) [RL14, novel lanthipeptide, nisin analog, core peptide from Enterococcus rotai/Enterococcus moraviensis] | 250 | 74.75 | 250 | 74.75 | 0.015 | 0.0045 | 62.5 | 18.69 | outperforming nisin | outperforming nisin | – | – | –
3 | IT SVSLC TPGCKTGALMGCNMKTAS CGCHVHVSK (bicyclic or more) [RL6, novel lanthipeptide, nisin analog, core peptide from Leuconostoc gelidum] | > 250 | > 76.17 | > 250 | > 76.17 | 0.12 | 0.037 | 250 | 76.17 | – | – | – | – | –
4 | Nisin A: commercialized nisin, class I lanthipeptide, food preservative (I[Dhb]SI[Dha]LCTPGCKTGALMGCNMKTATCHCSIHV[Dha]K; cysteine pairing not given here; also: lanthipeptide thioether crosslinks and dehydrated residues, positions not given here; UniProt P13068 24-57, looked up) [reference compound] | 125 | 37.27 | 125 | 37.27 | 0.06 | 0.018 | 250 | 74.53 | – | – | – | – | –
5 | Nisin Z: type I lanthipeptide nisin Z, synthesized by CFPS or from mLanA expressed in E. coli (I[Dhb]SI[Dha]LCTPGCKTGALMGCNMKTATCNCSIHV[Dha]K; cysteine pairing not given here; also: lanthipeptide thioether crosslinks and dehydrated residues, positions not given here; UniProt P29559 24-57, looked up) [reference compound] | 125 | 37.52 | 250 | 75.05 | 0.12 | 0.036 | 250 | 75.05 | – | – | obvious | did not exhibit | obvious zone of inhibition
6 | VT SISLC TPGCKTGILMT CAIKTAT CGCHF [Bagelicin] | – | – | – | – | – | – | – | – | – | – | – | – | contained anti‐M. luteus activity
7 | VT SKSLC TPGCKTGILQT CAIKSAT CGC SIHIGK (bicyclic or more) [RL8, novel lanthipeptide, nisin analog, core peptide from Bacillus cereus] | > 250 | > 76.52 | > 250 | > 76.52 | 0.24 | 0.073 | 250 | 76.52 | – | – | – | – | –
